According to patent publication US8741357B2, “Cosmetic or dermopharmaceutical composition comprising an euglena extract” (Sederma SAS, priority 2005, dated 2014):

Tested on: Human keratinocytes
Test: de novo IP3 synthesis in KHN cells (RIA)
Assay type: cell-based
Procedure: The IP3 produced by the cell is extracted with perchloric acid and assay is conducted by a RIA method based on competition for a specific IP3 binding protein between radioactive IP3 and cell extract IP3. The intracellular IP3 is assayed after stimulation with the extract of Euglena, vs.control. The positive control consists in Platelet-Activating Factor (PAF).
Human keratinocytes were cultured and incubated to 90% confluence. The cells were incubated in the presence of extract of euglena at various concentrations or the control for 1 minute.

Platelet-Activating Factor [PAF] was tested, and the IP3 (positive control, mean of n = 3) was 17.48 pmol/mL, the “Variation of IP3” value (positive control, relative to control) was 515 and the “IP3 production, result in words” value (vs control) was “stimulated IP3 production”.
